Experiments:
[1] = Rectal absorption in vivo (monkeys): suppositories, plasma level
Description: Für diesen Versuch wurden männliche und weibliche erwachsene Affen (Papio anubis und Papio hamadryas) im Gewicht vom 12-27 kg verwendet, die 24 Stunden vor der Verabreichung des Antibiotikums fasten gelassen wurden, dann durch i.m.-Injektionen von Kefamin Hydrochlorid vor der Verabreichung des Antibiotikums sediert wurden. Aus den nachstehend beschriebenen Formulierungen wurden Suppositorien hergestellt die den Tieren verabreicht wurden. Die Rektalöffnungen wurden dann mit Klebeband verschlossen, um ein Herausdrücken der Suppositorienmasse zu vermeiden.
Zur Messung der Resorption des Antibiotikums in den Blutstrom wurden Blutproben aus der Femoralregion vor der Verabreichung des Antibiotikums und 15, 30, 60, 120, 240, 360 und 480 Minuten danach entnommen. Proben wurden zentrifugiert und wie oben beschrieben vermessen.

[2] = Oral absorption in vivo (monkeys): enteric-coated hard gelatin capsules by gavage, plasma bioassay; conditions: for Cmax: monkey, plasma
Protocol: Erwachsene Affen (Papio anubis und Papio hamadryas) im Gewicht von 12-30 kg wurden über Nacht fasten gelassen, dann durch i.m.-Injektion von Ketaminhydrochlorid vor der Verabreichung des Antibiotikums sediert. Jeder Affe erhielt vier Hartgelatinekapseln durch Schlundsonde mit der folgenden Zusammensetzung:
Die Kapseln wurden mit einem Ueberzug von Polyvinylacetatphthalat (etwa 8% des Kapselgewichtes versehen).
1 ml Pro Blutproben wurden aus der Femoralregion jedes Affen mit einer heparinisierten 3-ml Spritze entnommen. Die Proben wurden vor der Verabreichung des Antibiotikums und 15, 30, 60, 120, 240, 360, 480, 600 und 720 Minuten danach entnommen. Die Blutproben wurden zentrifugiert und das Plasma nach Deproteinisierung mit Acetonitril einem Bioassay unterworfen.

[3] = Oral absorption in vivo (dogs): enteric-coated hard gelatin capsules by gavage, plasma level; conditions: for Cmax: male, beagle, dog, plasma
Description: Für diesen Versuch wurden männliche Beagle-Hunde im Gewicht von 10-14 kg verwendet, die 2-3 Hartgelatinekapseln durch die Schlundsonde erhielten. Die Kapseln hatten folgende Zusammensetzung:
Die Kapseln waren mit einem Ueberzug von Polyvinylacetatphthalat (etwa 8% des Kapselgewichtes versehen).
Die Plasmakonzentrationen wurden von Ceftriaxon vor der Verabreichung und 10, 20, 40, 60, 120, 180 und 240 Minuten nach der Verabreichung ermittelt. Die Messungen wurden in Blutplasma nach Deproteinisierung weiter oben beschrieben ermittelt.

[4] = Enteral absorption in vivo (rats): intraduodenal injection, antibiotic plasma level by agar-plate bioassay; conditions: Dosis = 5 mg/0,5 ml
Description: Weibliche Ratten im Gewicht von etwa 250 g wurden über Nacht fasten gelassen und mit Metofan anästhesiert. Die Antibiotika wurden in Lösung mit oder ohne Resorptionsver, stärker nach Bauchschnitt in das Duodenum unterhalb des Magenausgangs injiziert. Für Vergleichszwecke wurde die Lösung alternativ intravenös in die Schwanzvene appliziert.
Die Konzentration des Antibiotikums im Plasma der Ratte wurde nach verschiedenen Zeitintervallen nach intravenöser oder enteraler Verabreichung bestimmt. Blutproben wurden aus der Schwanzvene des Versuchstiers vor der Verabreichung des Antibiotikums und 5, 10, 20, 40, 60, 120, 240 und 360 Minuten danach entnommen, danach zentrifugiert und das Plasma bis zur Analyse eingefroren.
Antibiotika, die nicht an Plasma gebunden waren, wurden mit Wasser verdünnt und gegen in Wasser hergestellte Standards geprüft. Für gebundene Antibiotika wurde der Einfluss der Proteinbindung eliminiert durch Verdünnen aller Standardlösungen und Proben im gesammelten Plasma. Im Fall von Ceftriaxon in Cefazolin wurde der Effekt der Bindung dadurch berücksichtigt, dass Plasmaproben mit Acetonitril mit einem Verdünnungsfaktor 1:12 deproteinisiert und gegen eine Standardkurve in Wasser verdünnt gemessen wurden. Antibiotikaspiegel wurden wie unten angegeben auf Agarplatten ermittelt.
Die Platten wurden bei 37°C über Nacht bebrütet und die Hemmzonen auf die nächsten […] abgelesen. Die Berechnungen wurden mittels einer Autoassaymaschine (Giles Scientific, Inc., New York) vorgenommen. Vergleiche J.V. Bennett et al., Applied Microbiology 14, 170-177 (1966).

[5] = Enteral absorption in vivo (dogs): capsules through a modified Thomas cannula into the proximal jejunum, plasma level and bioavailability; conditions: for Cmax: beagle, dog, plasma
Protocol: Als Versuchstiere wurden sechs Beagle-Hunde im Gewicht von etwa 10-16 kg eingesetzt, denen eine modifizierte Thomaskanüle in das distale Duodenum eingesetzt worden war. […] Die Kapseln wurden durch die modifizierte Thomaskanüle in das proximale Jejunum appliziert. Die Dosierung war 20-50 mg Ceftriaxon pro kg Körpergewicht.
Die Plasmakonzentrationen von Ceftriaxon wurden vor der Verabreichung und 10, 20, 40, 60, 120, 180 und 240 Minuten nach der Verabreichung ermittelt. Zur Erstellung einer Standardkurve wurde Ceftriaxon mit normalem Hundeplasma verdünnt und deproteinisiert. Die Fläche unter der Kurve (AUC) wurde für jede Verabreichungsweise bestimmt. Aus diesen Bestimmungen wurde die Bioverfügbarkeit wie folgt berechnet. [formula]
Wenn keine i.v.-Daten für den gleichen enteral verwendeten Dosisspiegel verfügbar waren, wurde die folgende Gleichung angewandt: [formula]

[6] = both sexes, monkey, plasma, 500 mg, rectal suppository, Mit Resorptionsverstärker System: 500 mg Antibiotikum, 125 mg Laureth-12, 250 mg Labrasol, 1125 mg Witepsol H15, read-out: Cmax Bereich
[7] = both sexes, monkey, plasma, rectal suppository, Kontrolle ohne Resorptionsverstärker, read-out: Cmax Bereich
[8] = rectal suppository, Kontrolle ohne Resorptionsverstärker
[9] = rectal suppository, Mit Resorptionsverstärker System: 500 mg Antibiotikum, 125 mg Laureth-12, 250 mg Labrasol, 1125 mg Witepsol H15
[10] = Kontrollwert: Ceftriaxonnatrium 300 mg in the same capsule without absorption enhancer
[11] = 2-3 enteric-coated capsules each 300 mg Ceftriaxonnatrium, 225 mg Labrasol, 75 mg Laureth-12, 380 mg Witepsol H15
[12] = enteral (proximal jejunum), 2 capsules with 210 ml Ceftriaxonnatrium in 280 mg WITEPSOL H15 + 157,5 mg Labrasol + 52,5 mg Laureth-12, 20-50 mg/kg

Cn1nnnc1SCC1=C(C(=O)O)N2C(=O)[C@@H](NC(=O)[C@H](O)c3ccccc3)[C@H]2SC1 [Cefamandole, Cefamandol]
Cmax [1, 6]: 5.9 to 16.4 µg/mL
Cmax [1, 7]: 2.3 to 4.6 µg/mL
% Bioverfügbarkeit [1, 8]: 6.0 ± 2.3%
% Bioverfügbarkeit [1, 9]: 46.5 ± 16.6%

CO[C@@]1(NC(=O)Cc2cccs2)C(=O)N2C(C(=O)O)=C(COC(N)=O)CS[C@@H]21 [Cefoxitin]
Cmax [1, 6]: 4.7 to 10.8 µg/mL
% Bioverfügbarkeit [1, 8]: 0%
% Bioverfügbarkeit [1, 9]: 77.0 ± 22.5%

CO/N=C(\C(=O)N[C@@H]1C(=O)N2C(C(=O)O)=C(CSc3nc(=O)c(=O)[nH]n3C)CS[C@H]12)c1csc(N)n1 [Ceftriaxon]
Bioverfügbarkeit ([2]; 4 enteric-coated capsules each 300 mg Ceftriaxonnatrium, 225 mg Labrasol, 75 mg Laureth-12, 380 mg Witepsol H15): 10,8 ± 6,5%
Bioverfügbarkeit [2, 10]: 0%
Bioverfügbarkeit ([2]; formulation 300 mg Ceftriaxonnatrium, 75 mg Laureth-12, 415 mg Witepsol H15): 15,7 + 9,9%
Cmax ([2]; 300 mg per capsule, formulation 300 mg Ceftriaxonnatrium, 200 ml Natriumcaprylat, 75 mg Laureth-12, 415 mg Witepsol H15, read-out: Cmax-Bereich): 15 to 66.3 µg/mL
Cmax ([2]; 1200 mg, 4 enteric-coated capsules each 300 mg Ceftriaxonnatrium, 225 mg Labrasol, 75 mg Laureth-12, 380 mg Witepsol H15, read-out: Cmax-Bereich): 5.5 to 59.8 µg/mL
Bioverfügbarkeit [3, 11]: 34,2 ± 14,0%
Bioverfügbarkeit [3, 10]: 0%
Bioverfügbarkeit ([3]; formulation 300 mg Ceftriaxonnatrium, 200 mg Natriumcaprylat, 75 mg Laureth-12, 415 mg Witepsol H15): 22,4 + 13,5%
Cmax ([3]; 300 mg per capsule, formulation 300 mg Ceftriaxonnatrium, 200 mg Natriumcaprylat, 75 mg Laureth-12, 415 mg Witepsol H15): 14.4 µg/mL
Cmax [3, 11]: 21.6 µg/mL
Cmax [1, 6]: 18.2 to 49.6 µg/mL
Cmax ([1]; both sexes, monkey, plasma, 600 mg, rectal, Kontrollwert: 600 mg Ceftriaxonnatrium in suppository mass without absorption enhancer, read-out: Cmax-Bereich): 0.3 to 9 µg/mL
Cmax ([1]; both sexes, monkey, plasma, 600 mg, rectal, formulation 600 mg Ceftriaxonnatrium, 200 mg Natriumcaprylat, 125 mg Laureth-12, 1075 mg Witepsol H15, read-out: Cmax-Bereich): 68.1 to 1000 µg/mL
Cmax [1, 7]: 0.3 to 9 µg/mL
% Bioverfügbarkeit [1, 8]: 4.3 ± 2.8%
% Bioverfügbarkeit [1, 9]: 31.5 ± 13.1%
Bioverfügbarkeit ([1]; rectal, Kontrollwert: 600 mg Ceftriaxonnatrium in suppository mass without absorption enhancer): 4,3%
Bioverfügbarkeit ([1]; rectal, formulation 600 mg Ceftriaxonnatrium, 200 mg Natriumcaprylat, 125 mg Laureth-12, 1075 mg Witepsol H15): 49,3 ± 13.7%
Cmax ([4]; female, rat, plasma, 5 mg/0,5 ml, Cmax, Acconon Con + Laureth-12 (weight ratio 8:1)): 38.8 ± 22.6 µg/mL
Cmax ([4]; female, rat, plasma, 5 mg/0,5 ml, Cmax, Kontrolle Wasser, no absorption enhancer): 2.4 ± 1.9 µg/mL
Cmax ([4]; female, rat, plasma, 5 mg/0,5 ml, Cmax, Labrasol + Laureth-12 (weight ratio 8:1)): 106 ± 23 µg/mL
Cmax ([4]; female, rat, plasma, 5 mg/0,5 ml, Cmax, Natriumcaprylat (30%) + Laureth-12 (weight ratio 8:1)): 53.7 ± 13.3 µg/mL
Cmax [5, 12]: 19.5 µg/mL
Cmax ([5]; other: enteral, enteral, Kontrolle: solution of Ceftriaxon in water equivalent to 25 mg/kg, no absorption enhancer): 0.5 µg/mL
Bioverfügbarkeit [5, 12]: 45,4 ± 18,2%
Bioverfügbarkeit ([5]; enteral, Kontrolle: solution of Ceftriaxon in water equivalent to 25 mg/kg, no absorption enhancer): 0%

CC1(C)S[C@@H]2[C@H](NC(=O)Cc3ccccc3)C(=O)N2[C@H]1C(=O)O [Penicillin G]
Cmax ([1]; baboon, in vivo, rectal suppository, Kontrolle ohne Resorptionsverstärker, read-out: Cmax Bereich): 1.2 to 2.4 µg/mL
Cmax ([1]; baboon, in vivo, rectal suppository, Mit Resorptionsverstärker System: 500 mg Antibiotikum, 125 mg Laureth-12, 250 mg Labrasol, 1125 mg Witepsol H15, read-out: Cmax Bereich): 2 to 11.1 µg/mL
% Bioverfügbarkeit [1, 8]: 17.4 ± 8.0%
% Bioverfügbarkeit [1, 9]: 38.2 ± 26.1%
Cmax ([4]; rat, in vivo, 5 mg, Cmax, Acconon Con + Laureth-12 (weight ratio 8:1)): 3.5 ± 1 µg/mL
Cmax ([4]; rat, in vivo, 5 mg, Cmax, Kontrolle Wasser, no absorption enhancer): 0.5 ± 0.1 µg/mL
Cmax ([4]; rat, in vivo, 5 mg, Cmax, Labrasol + Laureth-12 (weight ratio 8:1)): 5.2 ± 1.6 µg/mL
Cmax ([4]; rat, in vivo, 5 mg, Cmax, Natriumcaprylat (30%) + Laureth-12 (weight ratio 8:1)): 7.4 ± 2.4 µg/mL

CN[C@H](CC(C)C)C(=O)N[C@H]1C(=O)N[C@@H](CC(N)=O)C(=O)N[C@H]2C(=O)N[C@H]3C(=O)N[C@H](C(=O)N[C@H](C(=O)O)c4cc(O)cc(O)c4-c4cc3ccc4O)[C@H](O)c3ccc(c(Cl)c3)Oc3cc2cc(c3O[C@@H]2O[C@H](CO)[C@@H](O)[C@H](O)[C@H]2O[C@H]2C[C@](C)(N)[C@H](O)[C@H](C)O2)Oc2ccc(cc2Cl)[C@H]1O [Vancomycin]
Cmax ([4]; female, rat, in vivo, 5 mg/0,5 ml, Cmax, Kontrolle Wasser, no absorption enhancer): 2.9 ± 0.6 µg/mL
Cmax ([4]; female, rat, in vivo, 5 mg/0,5 ml, Cmax, Labrasol + Laureth-12 (weight ratio 8:1)): 6.9 ± 1 µg/mL
Cmax ([4]; female, rat, in vivo, 5 mg/0,5 ml, Cmax, Natriumcaprylat (30%) + Laureth-12 (weight ratio 8:1)): 9.8 ± 3.5 µg/mL

Gentamicin
Cmax ([4]; Acconon Con + Laureth-12 (weight ratio 8:1)): 15.4 ± 2.3 µg/mL
Cmax ([4]; Kontrolle Wasser, no absorption enhancer): 3.9 µg/mL
Cmax ([4]; Labrasol + Laureth-12 (weight ratio 8:1)): 9.6 ± 1.9 µg/mL
Cmax ([4]; Natriumcaprylat (30%) + Laureth-12 (weight ratio 8:1)): 14.1 ± 6.9 µg/mL
